Measured values as given in publication PMC11009276, “Design, synthesis, biological assessment and molecular modeling studies of novel imidazothiazole-thiazolidinone hybrids as potential anticancer and anti-inflammatory agents” (Scientific Reports, 2024).
Like-named read-outs stand apart in the source and are kept apart here.

Legend:
[1] = system: HEK293 human embryonic kidney cell line; experiment: MTT cytotoxicity assay, normal cell line HEK293; assay type: cell-based; conditions: HEK293, MTT, 72 h, normal cell line, read-out: IC50 (Mean ± SD) HEK293
Method: All the synthesized imidazothiazole derivatives linked with thiazolidinone moiety (4a-g and 5a-d, Fig. 4) were evaluated for their in- vitro anticancer activities against three selected human cancer cell lines namely non-small lung (A549), breast (MCF7) and colorectal (HCT116) and one normal human embryonic kidney cell line (HEK293) using the 3‐(4,5‐Dimethylthiazol‐2‐yl)-2,5‐Diphenyltetrazolium Bromide (MTT) assay method. […]. […].
Cytotoxicity study of the newly synthesized derivatives 4a-g and 5a-d was performed by MTT colorimetric assay method. […] Compounds were tested against selected cancer cell lines namely A549 (Lung), MCF-7(Breast) HCT116 (Colon), normal human embryonic kidney cell line (HEK293) and procured from National Centre for Cell Science Complex (NCCS) Pune University, India. Into a 96 well plate, cells were seeded into each well (3 × 10^3 cells/ per well), the plate were incubated for 24 h, after that the culture medium was discarded and replaced with fresh medium along with our newly synthesized test compounds in different concentration (10, 20, 40 and 80 µM) followed by incubation for 72 h. Further, the media of each well of the plates were aspirated with the addition of 100 µL MTT solution followed by incubation for the next 5 h at 37 °C. Finally, each well is treated with DMSO (100 µL) and swirled to dissolve the dark crystals of formazan. ELISA reader was used to measure the absorbance at 570 nm. The experiment was repeated three times; Graph pad prism and excel are used to calculate the IC50 values.

[2] = target: Bovine serum albumin (BSA) (Bos taurus, UniProt P02769); experiment: BSA (protein albumin) denaturation inhibition assay; conditions: for BSA denaturation inhibition assay Mean absorbance ± SEM: 100 μg/mL, 660 nm
Method: All the synthesized compounds were evaluated for anti-inflammatory activity by the inhibition of the albumin denaturation technique. […] All the test solutions (1 mL, 100 μg/mL) were then mixed with 1 mL of albumin solution (1%) and phosphate buffer saline and then incubated for around 15 min at 27 ± 1 °C. Further, the denaturation of protein was induced by keeping the reaction mixture on the water bath for 10 min and maintaining the temperature at 60 °C. Once the solution gets cooled, the turbidity was measured using UV–Visible spectrophotometer at 660 nm.

[3] = target: EGFR kinase (Homo sapiens, UniProt P00533); experiment: In vitro EGFR kinase inhibitory assay (ELISA, phospho-EGFR in A549 cell lysates)
Method: For all the synthesized compounds, the overall methodology of a spectrophotometric assay for the inhibition of EGFR tyrosine kinase activity was evaluated in human A549 cells, which expressed high levels of EGFR protein. […] Cells were then washed with cold PBS, lysed in 0.2 ml/well of HNTG buffer (50 mM HEPES [(4‐(2‐hydroxyethyl)‐piperazineethanesulfonic acid; pH 7.5], 150 mM NaCl, 1.5 mM MgCl, 10% glycerol, 1% Triton X‐100, 0.5 mM sodium fluoride, 2 g/ml aprotinin, 2 g/ml pepstatin A, 1 mM sodium orthovanadate, 2 g/ml leupeptin, 1 mM phenyl methyl sulfonyl fluoride) for 10 min, and the lysates were collected as the supernatant fraction after a 12‐min centrifugation at 15,000 g. The specific EGFR concentration was measured by ELISA assay. Briefly, the wells of ELISA plates were coated with supernatant fraction and incubated at 4 °C overnight After washing three times with buffer (20 mM PBS, pH 7.2 containing 0.05% Tween‐20), the wells were blocked with 1% BSA for 2–3 h at room temperature. Further, the plate was washed and then mouse serum at 1,000‐fold dilution was added, followed by washing and incubation with phospho‐EGFR antibody (Invitrogen) at 4 °C overnight. The wells were washed and incubated with substrate solution (o‐phenylenediamine dihydrochloride), for 30 min, and the absorbance read on an ELISA plate reader at 490 nm[52]. %Inhibition=mean OD of untreated group-mean OD of treated group/mean OD of untreated group)×100.

[4] = Acute oral toxicity study; conditions: Wistar, rat, in vivo, 500 mg/kg
Method: Doxorubicin is used as standard drug […].
Animals (Wistar rats) procured were divided into three groups randomly, with six rats in each group. […] Group III is taken as control; all the animals were treated with 0.5 ml of sunflower oil per rat. All the animals were under observation, and after 24 h, mortality of treated animals was recorded. […] All the experiments performed were carried out with the approval of the IAEC, Jamia Hamdard, New Delhi.

[5] = read-out: BSA denaturation inhibition assay % inhibition of denaturation

Sequence of Bovine serum albumin (BSA) (P02769 25-607): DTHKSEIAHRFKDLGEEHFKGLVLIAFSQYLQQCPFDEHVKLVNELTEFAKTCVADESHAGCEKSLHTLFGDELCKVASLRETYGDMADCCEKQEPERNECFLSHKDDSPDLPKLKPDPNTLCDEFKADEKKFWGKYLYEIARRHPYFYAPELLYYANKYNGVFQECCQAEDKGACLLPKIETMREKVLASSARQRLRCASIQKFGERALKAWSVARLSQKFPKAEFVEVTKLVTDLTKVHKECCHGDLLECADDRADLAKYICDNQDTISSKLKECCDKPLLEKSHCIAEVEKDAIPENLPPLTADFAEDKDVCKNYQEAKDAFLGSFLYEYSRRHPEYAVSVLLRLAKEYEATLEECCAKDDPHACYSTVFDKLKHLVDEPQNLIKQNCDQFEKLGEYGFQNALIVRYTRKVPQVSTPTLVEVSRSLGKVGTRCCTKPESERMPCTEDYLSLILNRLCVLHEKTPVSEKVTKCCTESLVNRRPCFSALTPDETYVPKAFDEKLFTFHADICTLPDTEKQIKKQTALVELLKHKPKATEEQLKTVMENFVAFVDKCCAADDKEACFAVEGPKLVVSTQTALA
Sequence of EGFR kinase (P00533 25-1210): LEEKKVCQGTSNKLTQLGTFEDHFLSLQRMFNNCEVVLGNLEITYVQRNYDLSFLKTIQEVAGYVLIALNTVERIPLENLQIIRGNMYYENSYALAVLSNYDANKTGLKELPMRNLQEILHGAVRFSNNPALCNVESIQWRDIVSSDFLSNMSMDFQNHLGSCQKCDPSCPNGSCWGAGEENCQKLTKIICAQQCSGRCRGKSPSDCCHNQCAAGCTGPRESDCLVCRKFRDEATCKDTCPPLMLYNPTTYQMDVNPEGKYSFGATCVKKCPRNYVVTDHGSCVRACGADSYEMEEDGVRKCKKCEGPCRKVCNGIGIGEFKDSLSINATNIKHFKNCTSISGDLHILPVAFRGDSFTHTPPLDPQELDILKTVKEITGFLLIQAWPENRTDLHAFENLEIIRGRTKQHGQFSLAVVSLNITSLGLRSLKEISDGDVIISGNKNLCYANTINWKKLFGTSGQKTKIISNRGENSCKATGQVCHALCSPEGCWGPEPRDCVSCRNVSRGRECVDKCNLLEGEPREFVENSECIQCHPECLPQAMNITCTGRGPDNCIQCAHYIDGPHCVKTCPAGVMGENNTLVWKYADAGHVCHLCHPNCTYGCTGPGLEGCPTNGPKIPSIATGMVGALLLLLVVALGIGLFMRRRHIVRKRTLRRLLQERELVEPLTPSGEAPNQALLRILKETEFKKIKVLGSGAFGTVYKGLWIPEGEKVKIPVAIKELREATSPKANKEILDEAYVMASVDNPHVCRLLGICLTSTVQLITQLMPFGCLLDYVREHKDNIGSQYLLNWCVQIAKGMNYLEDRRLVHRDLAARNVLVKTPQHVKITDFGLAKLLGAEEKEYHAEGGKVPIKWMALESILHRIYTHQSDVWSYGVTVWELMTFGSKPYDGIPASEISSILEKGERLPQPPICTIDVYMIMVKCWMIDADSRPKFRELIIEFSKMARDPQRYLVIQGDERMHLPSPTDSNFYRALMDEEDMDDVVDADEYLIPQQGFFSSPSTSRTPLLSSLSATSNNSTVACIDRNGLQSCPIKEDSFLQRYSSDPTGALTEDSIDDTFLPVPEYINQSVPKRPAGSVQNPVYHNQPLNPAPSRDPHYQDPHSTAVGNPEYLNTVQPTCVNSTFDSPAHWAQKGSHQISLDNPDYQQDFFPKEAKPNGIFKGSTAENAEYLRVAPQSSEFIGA

inhibition at 100 µg/mL ([2]; read-out: BSA denaturation inhibition assay % inhibition of denaturation, 100 μg/mL)	melting point	SMILES	IC50 [1]	IC50 [3]	LD50 at 14 days [4]	BSA denaturation inhibition assay Mean absorbance ± SEM [2]	inhibition at 100 µg/mL [2, 5]
82.1%	165 to 167 °C	CC1SC(c2c(-c3ccccc3)nc3sccn23)N(c2ccc(F)cc2)C1=O (centres unmarked) [Compound 4a, 3-(4-Fluorophenyl)-5-methyl-2-(6-phenylimidazo[2,1-b]thiazol-5-yl) thiazolidin-4-one]	147 ± 4.3 µM	28.6 ± 1.96 µM			
		CC1SC(c2c(-c3ccccc3)nc3sccn23)N(c2ccc(Cl)cc2)C1=O (centres unmarked) [Compound 4b, 3-(4-Chlorophenyl)-5-methyl-2-(6-phenylimidazo[2,1-b]thiazol-5-yl) thiazolidin-4-one]	101 ± 3.41 µM	24.3 ± 1.73 µM	> 500 mg/kg	0.329 ± 0.001	84.9%
		CC1SC(c2c(-c3ccccc3)nc3sccn23)N(c2ccc(Br)cc2)C1=O (centres unmarked) [Compound 4c, 3-(4-Bromophenyl)-5-methyl-2-(6-phenylimidazo[2,1-b]thiazol-5-yl) thiazolidin-4-one]	96.4 ± 1.79 µM	18.4 ± 1.25 µM	> 500 mg/kg	0.332 ± 0.006	83.6%
